Reference: US20190201419A1, “COMPOUND AND METHOD FOR THE TREATMENT AND DIAGNOSIS OF NEURODEGENERATIVE CONDITIONS” (Swansea University, priority 2013, published 2019)

Legend:
[1] = biological target: T1, Lxrβ-LBD (Homo sapiens, UniProt P55055); test: Lanthascreen TR-FRET Lxrβ coactivator assay; type: binding
T1 construct: the Lxrβ-LBD tagged with glutathione-S-transferase (GST); purchased Invitrogen
T1 sequence (P55055 222-460 limits assumed): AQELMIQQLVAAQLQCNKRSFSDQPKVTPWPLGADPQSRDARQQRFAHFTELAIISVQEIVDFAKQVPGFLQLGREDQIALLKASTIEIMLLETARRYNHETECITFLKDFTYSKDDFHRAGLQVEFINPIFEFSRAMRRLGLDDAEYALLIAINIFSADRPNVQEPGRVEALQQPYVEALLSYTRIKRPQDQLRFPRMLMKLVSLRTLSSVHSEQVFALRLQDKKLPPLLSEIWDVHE
Source text: Lxrβ Ligand Binding Assay. For Lxrβ ligand binding activity measurement, the applicants used the Lanthascreen™ TR-FRET Lxrβ Coactivator Assay (Invitrogen). The assay uses a terbium (Tb)-labeled anti-GST antibody, a fluorescein-labeled coactivator peptide and the Lxrβ-LBD tagged with glutathione-S-transferase (GST). Binding of the agonist/ligand to Lxrβ-LBD causes a conformational change that result in an increase in the affinity of the Lxrβ for the coactivator peptide. The close proximity of the fluorescently labeled coactivator peptide to the Tb-labeled antibody causes an increase in the TR-FRET signal intensity. The TR-FRET ratio of 520/495 was calculated using a Victor multi label reader with an excitation wavelength of 340 nm and emission wavelengths of 520 nm and 495 nm, The activational capacity of potential ligands was tested in a […] polypropylene plate, following the manufacturer's protocol.

[2] = tested on: Abca1, Abcg1 and Srebf1 transcript levels; test: Quantitative PCR of Lxr target genes in SN4741 cells; type: cell-based, mouse; conditions: 3 h
Method: (§1) Quantitative PCR, Total RNA was extracted from SN4741. cells and zebrafish treated with the compounds of interest using the RNeasy Mini Kit (Qiagen), 1 μg was treated with RQ1 RNase-free DNase (Promega) and reverse transcribed using SuperScript II Reverse Transcriptase (invitrogen) and random primers (invitrogen) (RT+reaction). Parallel reactions without reverse transcriptase enzyme were done as a control (RT−reaction), and Sybergreen real-time quantitative PCR assays were performed. Expression levels were obtained by normalization with the Value of the housekeeping gene encoding actin obtained for every sample in parallel assays.

[3] = tested on: zebrafish embryos; test: Survival of transgenic zebrafish embryos on compound exposure; type: in vivo
Method: (§2) Zebrafish Strain and Maintenance Zebrafish were raised on a 14/10 h day/night cycle and were kept at 28.5 ° C. Islet-1:GFP transgenic embryos were obtained via natural spawning and staged in hours or days post fertilization (hpf and dpt) according to Kimmel et al). Embryos older than 24 hpf were treated with 0.03% phenylthiourea (PTU) to inhibit pigmentation. MO injections were performed using splice site specific zebrafish lxi MO MO injected embryos were immediately dechorionated and transferred to a 96 well plate and exposed to dimethyl sulfoxide (DMSO) treated or ligand treated medium. Compound Exposure. Islet-1:GFP embryos were collected by natural mating and immediately (at 1 cell stage) dechorionated and transferred to a 96 well plate. Each of the compounds tested were obtained as 10 mM stock and diluted in embryo medium to a final concentration of 10 μM, and 200 μL was added to each well. DMSO or propan-2-ol treated embryo medium was taken as control. Ligand solutions were replaced every 12 h with fresh ligand solution prepared in PTU treated embryo medium. Embryos were collected at 48 hpf, fixed for 4 h at room temperature with 4% paraformaldehyde and then washed and kept in PBST. Immunocytochemistry was performed using an anti-GFP antibody and fluorescence was viewed and photographed using a Zeiss Axioplan compound microscope and a Zeiss Axiocam digital camera.

[4] = tested on: active caspase 3+ cells; test: Active caspase 3+ cells in mouse E11.5 brain primary cultures; type: cell-based; conditions: for Concentration giving significant difference from vehicle in active caspase 3+ cells: p<0.05; for Number of active caspase-3+ cells: wt cultures, 3β,7α-diHCA, 3βH,7O-CA, 25-HC at 10 μM, toxic acids at low concentrations
Method: (§3) Primary Brain Cultures. Brains from E11.5 mice were manually dissected, plated on poly-D-lysine (150,000 cells/cm^2) and grown in serum-free N2 media consisting of 1:1 mixture of F12 and DMEM with 10 ng/mL insulin, 100 μg/mL apo-transferrin, 100 μM putrescine, 20 nM progesterone, 30 nM selenium, 6 mg/mL glucose, and 1 mg/mL BSA. Cells were treated for 3 days in vitro (DIV) with the compounds of interest, fixed with 4% PFA and processed for staining using appropriate antibodies.
(§4) Antibodies and Detection Procedures. Cells were fixed in 4% PFA, washed in PBS and blocked in 5% normal goat serum/PBS for 1 h at room temperature. Primary antibodies were diluted in PBS (pH 7.4), 0.3% Triton X-100, 1% BSA and incubations were carried out overnight at +4° C. or at room temperature for 2 h. The antibodies used were anti-:BrdU (1:400; Abeam), Islet-1 (1:100: Developmental Studies Hybridoma Bank), cleaved caspase-3 (Aspt 75) (1:100; Cell Signaling Technology), tyrosine hydroxylase (TH; 1:1000; Pel-Freeze) GABA (1:1,000; Sigma), Bm3a (1:250; Millipore), Nkx6.1 (1:200; Novus Biologicals), choline acetyltransferase (ChAT; 1:500; Millipore) and appropriate secondary antibodies (Jackson ImmunoResearch or Alexa). Cells positive for the corresponding marker were counted directly at the microscope at a magnification of 20×. Cells were counted in every well, in eight consecutive fields (going from one side of the well to the other, passing through the center), in three different wells per experiment and in three different experiments per condition. Random pictures of the wells were taken for every condition to document the result, and representative pictures were subsequently selected to represent the quantitative data. Photos were acquired with a Zeiss Axioplan microscope and a Hamamatsu camera C4742-95 using the Openlab software.

[5] = tested on: Islet1+ oculomotor neurons; test: Islet1+ cells in mouse E11.5 brain primary cultures; type: cell-based; conditions: for Number of Islet1+ cells / Concentration giving significant difference from vehicle in Islet1+ cells: wild type cultures; for Concentration giving significant difference from vehicle in Islet1+ cells: p<0.05
Method: as §3, §4

[6] = tested on: abca1; test: abca1 expression in zebrafish embryos; type: in vivo; conditions: 10 μM
Method: as §1
Zebrafish Strain and Maintenance Zebrafish were raised on a 14/10 h day/night cycle and were kept at 28.5 ° C. Islet-1:GFP transgenic embryos were obtained via natural spawning and staged in hours or days post fertilization (hpf and dpt) according to Kimmel et al). Embryos older than 24 hpf were treated with 0.03% phenylthiourea (PTU) to inhibit pigmentation. […] Immunocytochemistry was performed using an anti-GFP antibody and fluorescence was viewed and photographed using a Zeiss Axioplan compound microscope and a Zeiss Axiocam digital camera.

[7] = tested on: Islet-1; test: Islet-1 expression in Tg[Isl1:GFP] zebrafish embryos; type: in vivo; conditions: 10 μM
Method: as §1, §2

Structure (SMILES): CC(CCC[C@@H](C)[C@H]1CC[C@H]2[C@@H]3CC=C4C[C@@H](O)CC[C@]4(C)[C@H]3CC[C@]12C)C(=O)O (stereo partly drawn) [3β-HCA, 3β-hydroxycholest-5-en-26-oic acid]
- Competition with the effect of 3β,7α-diHCA in TR-FRET ([1]; 3β,7α-diHCA at 10 μM plus increasing concentrations of competitor): the effect of 3β,7α-diHCA was reduced to that of the latter acids
- Competitor concentration giving significant difference from 10 μM 3β,7α-diHCA alone in TR-FRET ([1]; p<0.05 vs 10 μM 3β,7α-diHCA): ≥ 5
- Abca1, Abcg1 and Srebf1 transcript levels [2]: induced transcription, but to a lesser extent
- Toxic effect on survival of the fish [3]: had a deleterious toxic effect which impaired the survival of the fish
- Surviving cells in cultures ([4]; 10 μM): no surviving cells were detected
- Concentration at which toxicity is initiated ([4]; mouse, primary brain cultures from E11.5 mouse embryos, 3 days): 1000 nM
- Concentration giving significant difference from vehicle in active caspase 3+ cells [4]: ≥ 2 µM
- Number of active caspase-3+ cells [4]: increased the number of active caspase-3+ cells
- Number of Islet1+ cells [5]: caused the loss of Islet1+ cells in the cultures
- Concentration giving significant difference from vehicle in Islet1+ cells [5]: ≥ 2 µM

Structure (SMILES): CC(CCC[C@@H](C)[C@H]1CC[C@H]2[C@@H]3[C@H](O)C=C4C[C@@H](O)CC[C@]4(C)[C@H]3CC[C@]12C)C(=O)O (stereo partly drawn) [3β,7α-diHCA, 3β,7α-dihydroxycholest-5-en-26-oic acid]
- TR-FRET signal (coactivator recruitment to Lxrβ-LBD) ([1]; dose response): induced FRET in a dose dependent manner to a higher degree than the other acids
- Abca1, Abcg1 and Srebf1 transcript levels [2]: increased transcripts levels to a similar degree as 22R-HC
- Reduction of neuronal cell death (activated caspase 3) induced by 2 μM 3β,7β-diHCA or 3β-HCA ([4]; 10 μM): reduced the neuronal cell death
- Effect on active caspase-3+ cells with GGPP ([4]; 10 μM GGPP, toxic acids at 2 μM): completely blocked by co-incubation with the Lxr inhibitor GGPP
- Concentration giving significant difference from vehicle in active caspase 3+ cells [4]: ≥ 10 µM
- Number of active caspase-3+ cells [4]: decreased the number of active caspase-3+ cells
- abca1 expression [6]: enhanced expression of abca1
- Rescue of loss of Islet1+ cells induced by 2 μM 3β,7β-diHCA or 3β-HCA ([5]; 10 μM): reversed the loss of Islet1+ cells
- Effect on Islet1+ cells in Lxrα−/−β−/− cultures ([5]; cultures from Lxrα−/−β−/− mice): eliminated
- Number of Islet1+ cells [5]: increased the number of Islet1+ oculomotor cells in the cultures
- Concentration giving significant difference from vehicle in Islet1+ cells [5]: ≥ 5 µM
- Effect on Islet1+ cells with Lxr antagonist GGPP ([5]; wt cultures, 10 μM GGPP): blocked by the Lxr antagonist GGPP
- Islet-1 mRNA and protein level (qPCR, western blot) [7]: accompanied by an increase in the level of Islet-1 mRNA and protein
- Islet-GFP expression ([7]; embryos 48 hpf): increased Islet-GFP expression
- Number of Islet1+ cells in cranial nerves (III, IV, V, VII, X) ([7]; embryos 48 hpf): had no significant effect on the number of Islet1+cells
- Islet-GFP levels after lxr morpholino injection ([7]; lxr MO vs control scrambled MO): lxr MO injections abolished the in vivo increase in Islet-GFP levels
